We go through one molecule from patent publication US20160312240A1, “MODIFIED PYR/PYL RECEPTORS ACTIVATED BY ORTHOGONAL LIGANDS” (The Regents of the University of California, priority 2010, published 2016).

For assay [1], the system named is control lines (Columbia wild-type; wild-type PYL2 overexpression line). As to the kind of experiment: Seedling germination/growth on fenhexamid. It counts as in vivo, Arabidopsis. Particulars: 100 μM fenhexamid, germinated in the dark, scored two days post-imbibition, FIG. 4. The text has this: (§1) FIG. 4. Characterization of seedling responses to fenhexamid in 35S::GFP-PYL2 K64R, Y124H, M164I, V67I, V114I transgenic plants. […] Shown are segregating GFP-expressing T2 seedlings from primary transgenic plants (T1). Columbia is the wild-type background and is non-transgenic. Two independent PYL2 K64R, Y124H, M164I, V67I, V114I (“PYL2 MUT”) transgenic lines were characterized in addition to a wild-type PYL2 overexpression line. Seeds from respective lines were germinated in the dark on media containing 100 μM fenhexamid and scored two days post-imbibition.
(§2) To investigate if the fenhexamid response observed in yeast and in vitro experiments would function in plants, transgenic 35S::GFP-PYL2 and 35S::GFP-PYL2^K64R,Y124H,M164I,V67I,V114I plants were constructed using standard molecular cloning methods into a modified version of pEGAD (Cutler et al., Proc Natl Acad Sci U.S.A. 97:3718-3723 (2000)) in which a 6×-histidine tag was added onto the N-terminus of GFP. Transgenic plants were made using the floral-dip method and primary transgenics (T1) identified by screening seedlings by epi-fluorescence using a Leica GFP dissecting microscope. The GFP^+ transgenic plants were grown to maturity and T2 seed collected for further analyses. […]

Assay [2] concerns 35S::GFP-PYL2 K64R,Y124H,M164I,V67I,V114I transgenic plants. As to the kind of experiment: Seedling germination/growth on fenhexamid. It counts as in vivo, Arabidopsis. The settings on record: 100 μM fenhexamid; T2 seedlings expressing mutant PYL2; FIG. 4.
Source text: as §1, §2

For the molecule `CC1(C(=O)Nc2ccc(O)c(Cl)c2Cl)CCCCC1` [fenhexamid], the “Post-germination arrest on fenhexamid” value in assay [1] is “do not”. Besides, in assay [2], the “Seedling growth on fenhexamid” value is on record as “strong growth inhibition”.
